System: CRMM1 cells
Experiment: Annexin-V-FITC / Propidium Iodide FACS, CRMM1
Format: cell-based, Human
Excerpt: Depending on the nature and intracellular localization of a PS, the light dose, and the cell type, PDT is known to provoke either necrosis, apoptosis, or autophagy. In order to investigate the death mechanism induced by green light-activated TLD1433 in CRMM1 and CRMM2 cells, the cells were stained with Annexin V and propidium iodide, and further analysed by fluorescence-activated cell sorting (FACS).
Figure 3 Green light irradiation of TLD1433 induces apoptosis and necrosis in CRMM1 and CRMM2 cells. (A) CRMM1 and (C) CRMM2 were stained with Annexin-V-FITC and Propidium Iodide. The percentages of live, early apoptotic, later apoptotic and necrotic cells in CRMM1 (B) and CRMM2 (D) were counted by FACS. Results are presented as means ± SD from three independent experiments. […]

Cc1ccnc(-c2cc(C)ccn2)c1.Cc1ccnc(-c2cc(C)ccn2)c1.[Cl-].[Cl-].[Ru+2].c1csc(-c2ccc(-c3ccc(-c4nc5c6cccnc6c6ncccc6c5[nH]4)s3)s2)c1 [TLD1433]
cell fate by FACS (in words) (CRMM1, dark TLD1433 group): most cells were found alive
cell fate by FACS (in words) (CRMM1, light-activated TLD1433 group): about half of the cells were found dead
